{"source": "paper PMC10689823", "about": "“Discovery of a Drug-like, Natural Product-Inspired DCAF11 Ligand Chemotype” (Nature Communications, 2023)", "assay_type_in_all_cases": "cell-based", "key": {"caspase-3/7 activity": {"system": "caspase-3/7 activity", "test": "Caspase-3/7 Activity Assay in Jurkat cells", "settings": "18 h, Fig. 4l", "protocol": "Jurkat cells (3 × 10^3) were seeded in 96-well plates in 25 μl culture medium. Cells were treated with compounds dissolved in 25 μl medium at the indicated concentration for 18 h. After adding 50 μl of Caspase-Glo® 3/7 Reagent (Promega, G8091) to each well for 30 min at room temperature, the luminescence was measured on a Spark® Multimode Microplate Reader (Tecan). The data was analyzed by the GraphPad Prism 9.0."}, "Jurkat cells": {"system": "Jurkat cells", "test": "Cell viability assay (CellTiter-Glo) in Jurkat cells", "settings": "for Relative cell viability (%): Fig. 4k; for Cell viability (%) relative to DMSO: individual replicates, Supplementary Fig. 7g", "protocol": "(§1) Jurkat cells (3 × 10^3) and Hep G2 cells (3.5 × 10^3) were seeded in 96-well plates in 100 μL culture medium. Cells were treated with compounds dissolved in 50 μl medium at the indicated concentration for 72 h, at the same time, one plate of cells without compounds treatment was used for the cell count at time zero. After adding 40 μl of CellTiter-Glo® reagent (Promega, G7571) to each well for 10 min at room temperature, the luminescence was measured on a Spark® Multimode Microplate Reader (Tecan). The data was analyzed by the GraphPad Prism 9.0."}, "[1]": {"test": "Cell viability assay (CellTiter-Glo) in Jurkat cells", "settings": "human, Jurkat cells", "protocol": "as §1"}, "BRD2": {"target": "BRD2 (Homo sapiens, UniProt P25440)", "sequence (P25440 whole entry)": "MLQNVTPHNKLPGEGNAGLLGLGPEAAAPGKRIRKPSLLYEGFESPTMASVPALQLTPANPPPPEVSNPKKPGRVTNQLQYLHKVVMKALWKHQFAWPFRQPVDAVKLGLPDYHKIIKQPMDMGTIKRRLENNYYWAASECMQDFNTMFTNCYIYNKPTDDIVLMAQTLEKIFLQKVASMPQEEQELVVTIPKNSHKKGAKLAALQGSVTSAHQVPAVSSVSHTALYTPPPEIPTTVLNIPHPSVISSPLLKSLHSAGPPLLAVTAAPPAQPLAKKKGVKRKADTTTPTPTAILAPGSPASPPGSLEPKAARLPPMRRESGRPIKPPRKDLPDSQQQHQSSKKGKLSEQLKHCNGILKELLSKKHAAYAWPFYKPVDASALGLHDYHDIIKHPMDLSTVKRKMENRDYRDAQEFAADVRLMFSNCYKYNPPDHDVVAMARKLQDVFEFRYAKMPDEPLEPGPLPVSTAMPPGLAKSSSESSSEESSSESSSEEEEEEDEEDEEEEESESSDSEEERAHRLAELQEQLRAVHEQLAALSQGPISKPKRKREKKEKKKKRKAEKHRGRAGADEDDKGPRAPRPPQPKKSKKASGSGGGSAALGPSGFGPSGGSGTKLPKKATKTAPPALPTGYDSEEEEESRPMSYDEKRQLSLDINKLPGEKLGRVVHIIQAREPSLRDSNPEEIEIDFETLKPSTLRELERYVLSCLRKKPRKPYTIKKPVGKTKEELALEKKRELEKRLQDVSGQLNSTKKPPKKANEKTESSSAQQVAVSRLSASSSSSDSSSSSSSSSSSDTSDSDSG", "test": "BRD2 levels by Western blot in KBM7 cells (WT, DCAF11 knockout, DDB1 knockout)", "parameters": "endogenous in cells; host or cells: KBM7 (WT, DCAF11 KO, DDB1 KO)", "settings": "4 h", "protocol": "Cells were washed with PBS and lysed in lysis buffer (50 mM Tris-HCl, pH 7.4, 150 mM NaCl, 1% Triton X-100, 1% sodium deoxycholate, 0.1% SDS) with complete protease inhibitor cocktail (Roche, 11836170001) for 30 min on ice. For Ramos cells, cell pellets were lysed in lysis buffer (50 mM Tris-HCl, pH 8, 150 mM NaCl, 1% NP-40, 0.5% sodium deoxycholate) with complete protease inhibitor cocktail. After centrifugation at 16,000 x g, the supernatant was transferred into a new tube and the protein concentration was determined by DC protein assay (BIO-RAD, 5000116). Proteins were separated by SDS-PAGE and transferred to a PVDF membrane (Thermo scientific, 0.45 μm, 88518). For PDEδ, BRD2, GAPDH, BRD4, Vinculin and BTK, the membranes were blocked with Intercept® Blocking Buffer (LI-COR Biosciences, 927-70001) at room temperature for 1 h. The primary antibodies for these proteins were diluted with Intercept® Blocking Buffer (1:500 for PDEδ, 1:3000 for Vinculin, and 1:1000 for other proteins) and incubated with the membranes overnight at 4 °C. Membranes were washed with PBS + 0.1% Tween 20 (PBS-T) five times and incubated with secondary antibodies conjugated to IRDye® Infrared Fluorescent Dyes (1:5000, LI-COR Biosciences) at room temperature for 1 h with protection from light. After washing the membrane, signals were visualized using the ChemiDoc MP Imaging System (BIO-RAD Laboratories). For detection of LC3B, BRD3, BLK, DCAF11, DDB1 RBX1, FIP200, V5- and FLAG-Tag the membranes were blocked with 5% milk in PBS-T at room temperature for 1 h. The primary antibodies for these proteins were diluted in 5% milk in PBS-T buffer (1:200 for BRD3, 1:1000 for other proteins) and incubated with the membranes overnight at 4 °C. Membranes were washed with PBS-T five times and incubated with HRP secondary antibodies (1:1500) at room temperature for 1 h. After washing the membrane, protein detection was performed using Western blotting detection reagent (Thermo Scientific, 34095) and the ChemiDoc MP Imaging System (BIO-RAD). Relative band intensities were quantified using Image Lab (BIO-RAD).\nDCAF11- or FIP200 (RB1CC1)-targeting sgRNAs were lentivirally packaged using PEI transfection of Lenti-X cells. The viral supernatant was harvested after 72 h, cleared of cellular debris by filtration through a 0.45-µm PES filter and stored in aliquots at −80 °C. The appropriate amount of viral supernatant was transduced into KBM7 cells (1 × 10^6 cells/mL) via spinfection (2000 rpm, 1 h, 37 °C) with polybrene (8 µg/mL). Two days post transduction, the cells were selected with puromycin (1 µg/mL) for a total of 5 days, after which the knockout pools were validated via western blotting."}}, "note": "Values joined by “and” are separate entries in the source; they are usually repeats but may differ in a detail not shown here. Equal entries are not always repeated."}
{"smiles": "Cc1sc2c(c1C)C(c1ccc(Cl)cc1)=NC(CC(=O)NCCOCCOCCOCCOc1c(Br)cc(CC3C(=O)Nc4ccc(Br)cc43)cc1Br)c1nnc(C)n1-2", "note": "(stereo not shown) [Compound 17]", "values": [{"measurement": "Caspase 3/7 activity (fold change)", "setting": "caspase-3/7 activity; 0.3 μM", "value": "1.197 fold change and 0.791 fold change and 0.9918 fold change"}, {"measurement": "Caspase 3/7 activity (fold change)", "setting": "caspase-3/7 activity; 1 μM", "value": "1.23 fold change and 0.8887 fold change and 1.1561 fold change"}, {"measurement": "GI50", "setting": "Jurkat cells; Homo sapiens, Jurkat cells, 72 h", "value": "1000 to 1200", "unit": "nM"}, {"measurement": "Relative cell viability (%)", "setting": "Jurkat cells; Jurkat cells, 72 h, 10 nM, 0.01 µM", "value": "113.554% and 104.708%"}, {"measurement": "Relative cell viability (%)", "setting": "Jurkat cells; Jurkat cells, 72 h, 30 nM, 0.03 µM", "value": "107.162% and 119.822% and 97.6289%"}, {"measurement": "Relative cell viability (%)", "setting": "Jurkat cells; Jurkat cells, 72 h, 100 nM, 0.1 µM", "value": "93.2408% and 94.967%"}, {"measurement": "Relative cell viability (%)", "setting": "Jurkat cells; Jurkat cells, 72 h, 300 nM, 0.3 µM", "value": "80.2996% and 90.3554% and 69.1714%"}, {"measurement": "Relative cell viability (%)", "setting": "Jurkat cells; Jurkat cells, 72 h, 1000 nM, 1 µM", "value": "51.0815% and 43.0724%"}, {"measurement": "Relative cell viability (%)", "setting": "Jurkat cells; Jurkat cells, 72 h, 3000 nM, 3 µM", "value": "24.9133% and 20.9046%"}, {"measurement": "Relative cell viability (%)", "setting": "Jurkat cells; Jurkat cells, 72 h, 10000 nM, 10 µM", "value": "-0.06982% and 0.1224% and 1.03%"}, {"measurement": "Relative cell viability (%)", "setting": "Jurkat cells; Jurkat cells, 72 h, 30000 nM, 30 µM", "value": "-0.1785% and -0.1531% and -0.21%"}, {"measurement": "Cell viability (%) relative to DMSO", "setting": "Jurkat cells; concentration 10 nmol/L", "value": "97.5079% and 115.29%"}, {"measurement": "Cell viability (%) relative to DMSO", "setting": "Jurkat cells; concentration 30 nmol/L", "value": "100.694% and 103.862%"}, {"measurement": "Cell viability (%) relative to DMSO", "setting": "Jurkat cells; concentration 100 nmol/L", "value": "98.8981% and 102.192%"}, {"measurement": "Cell viability (%) relative to DMSO", "setting": "Jurkat cells; concentration 300 nmol/L", "value": "95.2575% and 90.332%"}, {"measurement": "Cell viability (%) relative to DMSO", "setting": "Jurkat cells; concentration 1000 nmol/L", "value": "81.9098% and 92.9141%"}, {"measurement": "Cell viability (%) relative to DMSO", "setting": "Jurkat cells; concentration 3000 nmol/L", "value": "61.001% and 70.9093%"}, {"measurement": "Cell viability (%) relative to DMSO", "setting": "Jurkat cells; concentration 10000 nmol/L", "value": "25.3619% and 36.1626%"}, {"measurement": "Cell viability (%) relative to DMSO", "setting": "Jurkat cells; concentration 30000 nmol/L", "value": "28.6334% and 13.2236% and 16.0233%"}, {"measurement": "viability at 72 h, 10 nmol/L", "setting": "[1]; concentration 10 nmol/L, individual replicates, Supplementary Fig. 7g, read-out: Cell viability (%) relative to DMSO", "value": 104, "unit": "%"}, {"measurement": "viability at 72 h, 30 nmol/L", "setting": "[1]; concentration 30 nmol/L, individual replicates, Supplementary Fig. 7g, read-out: Cell viability (%) relative to DMSO", "value": 101, "unit": "%"}, {"measurement": "viability at 72 h, 100 nmol/L", "setting": "[1]; concentration 100 nmol/L, individual replicates, Supplementary Fig. 7g, read-out: Cell viability (%) relative to DMSO", "value": 100, "unit": "%"}, {"measurement": "viability at 72 h, 300 nmol/L", "setting": "[1]; concentration 300 nmol/L, individual replicates, Supplementary Fig. 7g, read-out: Cell viability (%) relative to DMSO", "value": 92.8, "unit": "%"}, {"measurement": "viability at 72 h, 1000 nmol/L", "setting": "[1]; concentration 1000 nmol/L, individual replicates, Supplementary Fig. 7g, read-out: Cell viability (%) relative to DMSO", "value": 80.1, "unit": "%"}, {"measurement": "viability at 72 h, 3000 nmol/L", "setting": "[1]; concentration 3000 nmol/L, individual replicates, Supplementary Fig. 7g, read-out: Cell viability (%) relative to DMSO", "value": 58.9, "unit": "%"}, {"measurement": "viability at 72 h, 10000 nmol/L", "setting": "[1]; concentration 10000 nmol/L, individual replicates, Supplementary Fig. 7g, read-out: Cell viability (%) relative to DMSO", "value": 38.2, "unit": "%"}, {"measurement": "viability at 72 h, 0.01 µM", "setting": "[1]; 72 h, 10 nM, Fig. 4k, read-out: Relative cell viability (%)", "value": 120, "unit": "%"}, {"measurement": "viability at 72 h, 0.1 µM", "setting": "[1]; 72 h, 100 nM, Fig. 4k, read-out: Relative cell viability (%)", "value": 104, "unit": "%"}, {"measurement": "viability at 72 h, 1 µM", "setting": "[1]; 72 h, 1000 nM, Fig. 4k, read-out: Relative cell viability (%)", "value": 54.7, "unit": "%"}, {"measurement": "viability at 72 h, 3 µM", "setting": "[1]; 72 h, 3000 nM, Fig. 4k, read-out: Relative cell viability (%)", "value": 23, "unit": "%"}, {"measurement": "BRD2 degradation in KBM7 cells", "setting": "BRD2", "value": "did not induce degradation of BRD2"}]}
